One assay concerns Enterococcus faecalis. The assay can be described thus: Compound was tested in vitro for antibacterial activity against Enterococcus faecalis. The assay is classed as functional.
For another assay, the system named is Serratia. The experiment in a line: Compound was tested in vitro for antibacterial activity against Serratia. The assay is classed as functional.
Another assay has as its system Escherichia coli. The assay can be described thus: Compound was tested in vitro for antibacterial activity against Escherichia coli. The assay is classed as functional.
Another assay concerns Bacillus subtilis. The experiment in a line: Compound was tested in vitro for antibacterial activity against Bacillus subtilis. The assay is classed as functional.
The next assay has as its system Enterobacter. The assay can be described thus: Compound was tested in vitro for antibacterial activity against Enterobacter. The assay is classed as functional.
In another assay the test system is Morganella. The experiment in a line: Compound was tested in vitro for antibacterial activity against Morganella. The assay is classed as functional.
Assay [1] in a line: Compound was tested in vitro for inhibition of gram negative organisms. To be noted: Bacteria. The assay is classed as functional.
Another assay deals with Providencia. The assay can be described thus: Compound was tested in vitro for antibacterial activity against Providencia. The assay is classed as functional.
The test system of another assay is Micrococcus luteus. The experiment in a line: Compound was tested in vitro for antibacterial activity against Sarcina lutea. The assay is classed as functional, sarcinea lutea.
The subject of the next assay is Staphylococcus. The experiment in a line: Compound was tested in vitro for antibacterial activity against Staphylococcus. The assay is classed as functional.
Assay [2] can be described thus: Compound was tested in vitro for inhibition of gram positive organisms. The assay is classed as functional. To be noted: Bacteria.
In a further assay the test system is Salmonella. The experiment in a line: Compound was tested in vitro for antibacterial activity against Salmonella. The assay is classed as functional.
The next assay deals with Klebsiella. The assay can be described thus: Compound was tested in vitro for antibacterial activity against Klebsiella. The assay is classed as functional.

The term MIC denotes the lowest concentration found to suppress growth.

As for `CCCCOC1=C(C(=O)[O-])N2C(=O)[C@H]([C@@H](C)O)[C@H]2S1.[Na+]`, the MIC is 32 µg/mL against Enterococcus faecalis; at least 128 µg/mL in the assay with Serratia; at least 25.9 µg/mL with Escherichia coli; 1 µg/mL in the assay on Bacillus subtilis; at least 128 µg/mL against Enterobacter; at least 90.5 µg/mL in the assay with Morganella. In addition, the MIC in [1] is 53 µg/mL; in the assay on Providencia, at least 80.6 µg/mL; with Micrococcus luteus it was 1 µg/mL; against Staphylococcus, 1.51 µg/mL; in assay [2] it was 2.26 µg/mL; against Salmonella it was at least 36.8 µg/mL. Further, in the assay with Klebsiella, the MIC is at least 32 µg/mL.
For the compound `CCSC1=C(C(=O)[O-])N2C(=O)[C@H]([C@@H](C)O)[C@H]2S1.[Na+]`, the values for the MIC in assay [1] and in [2] were 0.7 µg/mL and 0.1 µg/mL, respectively.
`C[C@@H](O)[C@H]1C(=O)N2C(C(=O)[O-])=C(OCCN)S[C@H]12.[Na+]`: the MIC in the assay on Enterococcus faecalis was 45.3 µg/mL; against Serratia, at least 128 µg/mL; in the assay on Escherichia coli it was at least 128 µg/mL; against Bacillus subtilis, 8 µg/mL; against Enterobacter, at least 128 µg/mL; against Morganella, at least 128 µg/mL. Further, the MIC in assay [1] was at least 128 µg/mL; in the assay with Providencia, at least 128 µg/mL; in the assay with Micrococcus luteus it was 32 µg/mL; in the assay with Staphylococcus, 27.4 µg/mL; in assay [2], 27.3 µg/mL; against Salmonella, at least 128 µg/mL. This compound also returned an MIC in the assay on Klebsiella of at least 128 µg/mL.
In the case of `COC1=C(C(=O)[O-])N2C(=O)[C@H]([C@@H](C)O)[C@H]2S1.[Na+]`, the MIC against Enterococcus faecalis is 32 µg/mL; against Serratia, 29.6 µg/mL; in the assay with Escherichia coli, 10.4 µg/mL; against Bacillus subtilis, 1.41 µg/mL; with Enterobacter it was 24.2 µg/mL; with Morganella it was 45.3 µg/mL. Moreover, the MIC in assay [1] amounted to 16.6 µg/mL; in the assay with Providencia it was 39.4 µg/mL; against Micrococcus luteus, 2 µg/mL; against Staphylococcus, 1.51 µg/mL; in [2], 3.2 µg/mL; with Salmonella, 6.96 µg/mL. Besides, 8.98 µg/mL was the least that counted as inhibitory in the assay on Klebsiella (MIC).
As to `C[C@@H](O)[C@H]1C(=O)N2C(C(=O)[O-])=C(OCCOC(N)=O)S[C@H]12.[Na+]`, the MIC in the assay on Enterococcus faecalis turned out to be 64 µg/mL; with Serratia, 16 µg/mL; with Escherichia coli it was 6.62 µg/mL; with Bacillus subtilis, 1 µg/mL; with Enterobacter it was 10.1 µg/mL; against Morganella, 16 µg/mL. The MIC in assay [1] was 8.3 µg/mL; against Providencia, 27.9 µg/mL; against Micrococcus luteus it was 0.5 µg/mL; against Staphylococcus it was 1.57 µg/mL; in [2], 2.07 µg/mL; with Salmonella it was 4 µg/mL. Also, in the assay on Klebsiella, the MIC is 4.92 µg/mL.
In the case of `CCOC1=C(C(=O)[O-])N2C(=O)[C@H]([C@@H](C)O)[C@H]2S1.[Na+]`, the MIC against Enterococcus faecalis is 64 µg/mL; in the assay on Serratia it was at least 22.6 µg/mL; in the assay on Escherichia coli, 6.82 µg/mL; against Bacillus subtilis, 1 µg/mL; in the assay with Enterobacter, at least 24.2 µg/mL; in the assay with Morganella, 45.3 µg/mL. Moreover, the MIC in assay [1] was determined as 12.1 µg/mL; against Providencia, 39.4 µg/mL; in the assay with Micrococcus luteus, 1 µg/mL; in the assay with Staphylococcus, 3.12 µg/mL; in [2], 2.8 µg/mL; with Salmonella it was 4.6 µg/mL. In the assay with Klebsiella, this compound had an MIC of 5.04 µg/mL.
Regarding `C[C@@H](O)[C@H]1C(=O)N2C(C(=O)[O-])=C(SCCOC(N)=O)S[C@H]12.[Na+]`, the minimal inhibitory concentration (MIC) in assay [1] was 0.5 µg/mL; in assay [2], 0.2 µg/mL.
Take `CCCOC1=C(C(=O)[O-])N2C(=O)[C@H]([C@@H](C)O)[C@H]2S1.[Na+]`: the MIC with Enterococcus faecalis is 32 µg/mL; against Serratia, at least 87.1 µg/mL; in the assay on Escherichia coli, 14.4 µg/mL; in the assay on Bacillus subtilis, 1 µg/mL; with Enterobacter it was at least 73.5 µg/mL; against Morganella, 64 µg/mL. Besides, the MIC in assay [1] was 31.6 µg/mL; with Providencia, at least 64 µg/mL; in the assay with Micrococcus luteus it was 1 µg/mL; against Staphylococcus, 1.66 µg/mL; in assay [2], 2.44 µg/mL; in the assay with Salmonella it was 10.6 µg/mL. This compound also registered an MIC against Klebsiella of 20.2 µg/mL.
For `C[C@@H](O)[C@H]1C(=O)N2C(C(=O)[O-])=C(SCCN)S[C@H]12.[Na+]`, the figures for the MIC in [1] and in assay [2] were 3.6 µg/mL and 0.2 µg/mL, respectively.
